Data set [1] in a line: in vivo pharmacokinetics, plasma and brain exposure. Conditions: for Kp: rodents.
Source text: Brain penetration may be assessed by evaluating free brain/plasma ratio (Bu/Pu) as measured in vivo pharmacokinetic studies in rodents.
The next data set deals with RIPK1 (Homo sapiens (Human), UniProt Q13546). Nature of the data set: RIPK1 ADP-Glo biochemical kinase assay. Conditions: read-out: RIPK1 ADP-Glo Kinase (IC50). On the procedure: The final reaction volume was 5.0ul.
Adding 5 μl of ADP-Glo™ terminated the reaction.
For orientation: ADP-Glo turns the ADP formed in a reaction into a luminescent signal.

The next data set relates to L929 cells. Nature of the data set: L929 cell necroptosis assay (TNFa + zVAD, CellTiter-Glo). The format is cell-based, murine. The procedure, abridged:
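Murine L929 cells, plated 18 h beforehand at 10K cells/well in RPMI 1640 with 10% FBS, were switched to medium containing 40 uM zVAD-fmk and given compound from 4-fold serial dilutions. Viability after 18 h of TNFa stimulation at 37° C was read by CellTiter-Glo luminescence.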
In general terms: In ATP-based viability assays light output follows the ATP content of the culture.

Another data set has as its system U937 cells. Nature of the data set: U937 cell necroptosis assay (TNFa + zVAD, CellTiter-Glo). The format is cell-based, human. Conditions: Homo sapiens. The method, boiled down: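 Human U937 and murine L929 cells in RPMI 1640/10% FBS were pre-incubated 1 h at 37 °C with serially diluted compound plus zVAD-fmk (U937 plated with 60 uM, L929 medium with 40 uM), then stimulated with 2 ng/mL TNFa (final). Viability read by CellTiter-Glo luminescence after 18 h.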

The subject of data set [2] is TNF-alpha induced hypothermia. Conditions: dose of 30 mg/kg, according to WO 2014/125444; cited from earlier work.
Setting [3] is: U-937, read-out: U937 Zvad TNF CTG Recovery, U937, TNFa + zVAD (IC50), U937 cells, TNFa + zVAD.
Setting [4] is: Mus musculus, L929, L929 cells, TNFa + zVAD, read-out: L929-CTG-recovery, L929, TNFa + zVAD (IC50).
Setting [5] is: U-937, U937 cells, TNFa + zVAD, read-out: U937 Zvad TNF CTG Recovery, U937, TNFa + zVAD (IC50).

This is an account of results in patent US11407736B2 (priority 2019, dated 2022).

Like-named read-outs stand apart in the source and are kept apart here.

Chain of RIPK1 (Q13546 whole entry, species assumed): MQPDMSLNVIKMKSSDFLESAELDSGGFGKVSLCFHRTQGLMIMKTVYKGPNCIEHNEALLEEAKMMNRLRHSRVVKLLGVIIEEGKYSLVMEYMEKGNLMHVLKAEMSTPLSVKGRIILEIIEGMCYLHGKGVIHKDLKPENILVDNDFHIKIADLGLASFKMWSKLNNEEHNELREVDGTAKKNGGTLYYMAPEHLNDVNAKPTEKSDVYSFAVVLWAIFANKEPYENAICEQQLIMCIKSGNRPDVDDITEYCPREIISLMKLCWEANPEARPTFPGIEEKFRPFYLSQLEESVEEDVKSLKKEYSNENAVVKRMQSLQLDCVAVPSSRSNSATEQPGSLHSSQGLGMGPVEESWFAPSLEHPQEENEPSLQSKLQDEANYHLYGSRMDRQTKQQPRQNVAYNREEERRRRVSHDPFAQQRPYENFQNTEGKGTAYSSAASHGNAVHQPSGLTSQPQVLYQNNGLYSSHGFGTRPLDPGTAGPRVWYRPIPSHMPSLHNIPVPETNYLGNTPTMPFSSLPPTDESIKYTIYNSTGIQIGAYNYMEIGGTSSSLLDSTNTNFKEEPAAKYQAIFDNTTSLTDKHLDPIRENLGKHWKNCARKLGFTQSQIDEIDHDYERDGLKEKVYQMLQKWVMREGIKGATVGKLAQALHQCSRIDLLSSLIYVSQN

In general, Kp refers to tissue or fluid exposure divided by exposure in the circulation. Turning to `CN1C(=O)C(NC(=O)n2cc(Cc3ccccc3)cn2)CCc2ccc(N3CC4(CCOCC4)C3)cc21` (racemic) [Compound I-182, (±)-4-Benzyl-N-(1-methyl-2-oxo-8-(7-oxa-2-azaspiro[3.5]nonan-2-yl)-2,3,4,5-tetrahydro-1H-benzo[b]azepin-3-yl)-1-pyrazole-1-carboxamide], in data set [1], the “BRAIN AUC0-6” value was 157. The molecule further registered a Kp in data set [1] (in vivo) of 0.56.
One may read the IC50 as the point on the concentration scale where inhibition reaches its midpoint. For `CN1C(=O)[C@@H](NC(=O)c2cc(Oc3ccccc3)ccn2)COc2ccc(C#CC3(C)COC3)cc21` [Compound I-127, (S)—N-(5-methyl-7-((3-methyloxetan-3-yl)ethynyl)-4-oxo-2,3,4,5-tetrahydrobenzo[b][1,4]oxazepin-3-yl)-4-phenoxypicolinamide], the IC50 on RIPK1 stood at 29.6 nM; in the data set with L929 cells (Mus musculus, L929, read-out: L929-CTG-recovery, L929, TNFa + zVAD (IC50), L929 cells, TNFa + zVAD), 40.6 nM; with U937 cells (setting [3]), 0.3 nM. The “BRAIN AUC0-6” value in data set [1] worked out at 160. The same molecule had a Kp in data set [1] (brain/plasma) of 0.98.
Regarding `CN1C(=O)[C@@H](NC(=O)c2cc(Oc3ccccc3)ccn2)COc2ccc(C#CC(C)(C)N)cc21` [Compound I-139, (S)—N-(7-(3-amino-3-methylbut-1-yn-1-yl)-5-methyl-4-oxo-2,3,4,5-tetrahydrobenzo[b][1,4]oxazepin-3-yl)-4-phenoxypicolinamide], the IC50 came to 21.2 nM on RIPK1; 538 nM in the data set on L929 cells (read-out: L929-CTG-recovery, L929, TNFa + zVAD (IC50), L929 cells, TNFa + zVAD); 7.7 nM in the data set with U937 cells (setting [3]). For the same molecule, the “BRAIN AUC0-6” value in data set [1] is listed as 1100. Moreover, the Kp in data set [1] (brain/plasma) worked out at 1.29.
Turning to `CN1C(=O)[C@@H](NC(=O)n2cc(Cc3ccc(F)cc3)cn2)COc2ccc(C#CC3(C)COC3)cc21` [Compound I-180, (S)-4-(4-fluorobenzyl)-N-(5-methyl-7-((3-methyloxetan-3-yl)ethynyl)-4-oxo-2,3,4,5-tetrahydrobenzo[b][1,4]oxazepin-3-yl)-1H-pyrazole-1-carboxamide], the “BRAIN AUC0-6” value in data set [1] is 251. Besides, the concentration ratio (Kp) in data set [1] (brain/plasma) amounted to 2.44.
On to `CN1C(=O)[C@@H](NC(=O)c2nnc(Cc3ccccc3)[nH]2)COc2ccccc21` [(S)-5-benzyl-N-(5-methyl-4-oxo-2,3,4,5-tetrahydrobenzo[b][1,4]oxazepin-3-yl)-4H-1,2,4-triazole-3-carboxamide], for which the “inhibition of TNF-alpha induced hypothermia” value in data set [2] is listed as 93%.
Consider `Cc1cccc(C#Cc2ccc3c(c2)N(C)C(=O)[C@@H](NC(=O)n2cc(Cc4ccc(F)cc4)cn2)CO3)n1` [Compound I-183, (S)-4-(4-fluorobenzyl)-N-(5-methyl-7-((6-methylpyridin-2-yl)ethynyl)-4-oxo-2,3,4,5-tetrahydrobenzo[b][1,4]oxazepin-3-yl)-1H-pyrazole-1-carboxamide], for which the “BRAIN AUC0-6” value in data set [1] was 326. Further, the partition ratio (Kp) in data set [1] (brain/plasma) was found to be 0.9.
As for `CN1C(=O)[C@@H](NC(=O)n2cc(Cc3ccc(F)cc3)cn2)COc2ccc(N3CC4(CCOCC4)C3)cc21` [Compound I-184, (S)-4-(4-fluorobenzyl)-N-(5-methyl-4-oxo-7-(7-oxa-2-azaspiro[3.5]nonan-2-yl)-2,3,4,5-tetrahydrobenzo[b][1,4]oxazepin-3-yl)-1H-pyrazole-1-carboxamide], in data set [1], the “BRAIN AUC0-6” value was found to be 731. In data set [1] (in vivo), this molecule registered a Kp of 0.93.
Taken in the same sequence, the figures for `CN1C(=O)[C@@H](NC(=O)c2nn(Cc3ccccc3)cc2F)COc2ccc(N3CCC4(CCOCC4)C3)cc21` [Compound I-181, (S)-1-Benzyl-4-fluoro-N-(5-methyl-4-oxo-7-(8-oxa-2-azaspiro[4.5]decan-2-yl)-2,3,4,5-tetrahydrobenzo[b][1,4]oxazepin-3-yl)-1H-pyrazole-3-carboxamide] were 456 and 0.46.
For `COC1(C#Cc2ccc3c(c2)N(C)C(=O)[C@@H](NC(=O)c2cc(Oc4ccccc4)ccn2)CO3)CN(C)C1` [Compound I-155, (S)—N-(7-((3-methoxy-1-methylazetidin-3-yl)ethynyl)-5-methyl-4-oxo-2,3,4,5-tetrahydrobenzo[b][1,4]oxazepin-3-yl)-4-phenoxypicolinamide], the half-inhibitory concentration (IC50) stood at 24.6 nM on RIPK1, 313 nM in the data set on L929 cells (setting [4]) and 1.3 nM in the data set with U937 cells (setting [5]). Moreover, in data set [1], the “BRAIN AUC0-6” value was 373. The same molecule had a partition ratio (Kp) in data set [1] (brain/plasma) of 1.7.
`Cc1cc(Oc2ccccc2)cc(C(=O)N[C@H]2COc3ccc(C#CC(C)(C)O)cc3N(C)C2=O)n1` [Compound I-119, (S)—N-(7-(3-hydroxy-3-methylbut-1-yn-1-yl)-5-methyl-4-oxo-2,3,4,5-tetrahydrobenzo[b][1,4]oxazepin-3-yl)-6-methyl-4-phenoxypicolinamide]: the half-maximal inhibitory concentration (IC50) turned out to be 59.8 nM at RIPK1, 4050 nM with L929 cells (setting [4]) and 14.6 nM with U937 cells (setting [5]).
In the case of `CN1C(=O)[C@@H](NC(=O)c2n[nH]c(Cc3ccccc3)n2)COc2cc(C#CC(C)(C)O)ccc21` [Compound I-63, (S)-5-benzyl-N-(8-(3-hydroxy-3-methylbut-1-yn-1-yl)-5-methyl-4-oxo-2,3,4,5-tetrahydrobenzo[b][1,4]oxazepin-3-yl)-1H-1,2,4-triazole-3-carboxamide], the IC50 is 30.3 nM on RIPK1, 0.3 nM in the data set with L929 cells (setting [4]) and 1 nM with U937 cells (setting [5]).
For the molecule `CN1C(=O)[C@@H](NC(=O)c2n[nH]c(Cc3ccccc3)n2)COc2ccc(CCCCO)cc21` [Compound I-15, (S)-5-benzyl-N-(7-(4-hydroxybutyl)-5-methyl-4-oxo-2,3,4,5-tetrahydrobenzo[b][1,4]oxazepin-3-yl)-1H-1,2,4-triazole-3-carboxamide], the results for the IC50 on RIPK1, with L929 cells (setting [4]) and with U937 cells (setting [5]) were 136 nM, 2200 nM and 4.8 nM, respectively.
